{"source": "patent US20250059232A1", "about": "“PENTAPEPTIDE AND USE THEREOF” (ENSOL BIOSCIENCES INC., priority 2021, published 2025)", "key": {"[1]": {"test_system": "PC3 cells co-cultured with NK92 cells", "assay": "PC3/NK92 co-culture: Western blot of LC3II and cleaved PARP", "assay_type": "cell-based, human", "settings": "300 uM with 10 μg/ml anti-PD-L1", "protocol": "In addition, the expression of LC3II, which is an autophagy marker, and the expression of cleaved PARP, which is a cell death marker, were determined by a Western blot test. 1×10^6 PC3 cells were seeded in 6 wells and stabilized by culturing overnight, and the PC3 cells were treated with 10 μg/ml of the anti-PD-L1 and 300 uM of the peptide of Example 1 for each condition while the same number of NK92 cells were additionally seeded. After a predetermined period of treatment, the NK92 cells were removed by washing, and proteins were isolated from the tumor cells to determine LC3II (12 h) and PARP (24 h) expression changes. The expression amounts of each marker were calculated as proportions relative to the control. FIG. 13 is a graph showing the amount of cleaved PARP expression compared to PARP for each test group in the anticancer effect evaluation test in which the x-axis represents test groups and the y-axis represents the amount (%) of cleaved PARP expression compared to the PARP. FIG. 14 is a graph showing the amount of LC3II expression compared to actin for each test group in an anticancer effect evaluation test, in which the x-axis represents test groups, and the y-axis represents the amount (%) of LC3II expression compared to actin in the test group."}, "MDA-MB-231 [2]": {"test_system": "MDA-MB-231", "assay": "MDA-MB-231 xenograft in BalB/c nude mouse: survival rate", "assay_type": "in vivo", "settings": "100 mg/kg subcutaneously 3 times weekly, co-administered with paclitaxel 20 mg/kg once weekly", "protocol": "To investigate survival rates of the paclitaxel-only administration group and the group co-administered with paclitaxel and the peptide of Example 1, experiments described below were performed. 5×10^6 cells/head of the human triple negative breast cancer cell line MDA-MB-231 were mixed with Matrigel and PBS (1:1). 100 ul of the mixture was injected into the right third fat pad of 7-week-old female BalB/c nude mouse. After the transplantation, drug administration started from an average tumor size of 70 mm^3. Paclitaxel 20 mg/kg was administered once weekly, and the peptide 100 mg/kg of Example 1 was administered subcutaneously 3 times weekly at 48-hour intervals, 48 hours after the paclitaxel administration. Each test group was administered for 12 weeks and animal survival was observed daily. FIG. 10 is a graph illustrating survival rates over time after sample administration in animal experimentation. In FIG. 10, the x-axis represents the elapsed time (days) after administration and the y-axis represents survival rates (%). […] In the case of the group co-administered with the peptide of Example 1, the first deceased mouse occurred on Day 60 of administration."}, "MDA-MB-231 [3]": {"test_system": "MDA-MB-231", "assay": "MDA-MB-231 fat pad xenograft in athymic nude mouse: tumor volume and weight", "assay_type": "in vivo, human", "protocol": "5×10^6 cells/head of the human triple negative breast cancer cell line MDA-MB-231 (American Type Culture Collection (ATCC)) were mixed with Matrigel and PBS (1:1). 100 ul of the mixture was injected into the right third fat pad of 7-week-old female athymic nude mouse. After the transplantation, drug administration started from an average tumor size of 80 mm^3. Paclitaxel 20 mg/kg was administered on Day 0 and on Day 1. That is, the paclitaxel 20 mg/kg was administered a total of two times. Then, the peptide of Example 1 was administered in a dose of 100 mg/kg on Day 2, Day 4, and Day 6. That is, the peptide of Example 1 was administered a total of three times. Tumor volumes were measured 3 times a week for 3 weeks after administration of the first dose. Tumor weights were measured by necropsy after the end of the experiment. For each group, ten mice were used.\nTumor volume changes over time for each group are shown in FIG. 8, and tumor weight on the eighteenth day after the administration of the first dose for each group is shown in FIG. 9. FIG. 8 is a graph illustrating the changes in tumor volume over time after sample administration in animal experimentation. In FIG. 8, the x-axis represents the number of days elapsed after the start of administration and the y-axis represents the tumor volume change (mm^3). FIG. 9 is a graph illustrating a tumor weight for each test group in animal experimentation. In FIG. 9, the x-axis represents test groups and the y-axis represents tumor weights (mg)."}, "[4]": {"assay": "4-week repeated subcutaneous toxicity and toxicokinetic test in beagle dogs", "assay_type": "in vivo, beagle dog", "protocol": "In addition, 3 female and male beagle dogs were used per group to repeatedly subcutaneously administer the pentapeptide of Example 1 at doses of 40, 120, 400 mg/kg for 4 weeks daily. During the test period, general symptom observation, weight and feed intake measurements, ophthalmological examination, electrocardiogram, urinalysis, hematology and clinical biochemistry test, and toxicokinetic examination were performed. In addition, organ weight measurements, visual inspection, and histopathological examination of autopsy subjects were performed. […] Thus, the NOAEL (No Observed Adverse Effect Level) of the pentapeptide of Example 1 for female and male beagle dogs under the presented test conditions is determined to be 400 mg/kg/day."}, "[5]": {"test_system": "PC3 cells co-cultured with NK92 cells", "assay": "PC3/NK92 co-culture: Granzyme B expression by immuno-fluorescence staining", "assay_type": "cell-based, human", "settings": "300 uM with 10 μg/ml anti-PD-L1; 12 hours", "protocol": "The experiment described below was performed to identify the tumor suppression mechanism of the combination treatment of the peptide of Example 1 and anti-PD-L1, which is an immune checkpoint inhibitor. First, prostate cancer cell lines PC3 (ATCC) and NK92 (Immunotherapy Research Center, Korea Research Institute of Bioscience and Biotechnology) were co-cultured. 7.8×10^4 PC3 cells were seeded in 4-well chambers and stabilized by culturing overnight, and the PC3 cells were treated with 10 μg/ml of the anti-PD-L1 and 300 uM of the peptide of Example 1 for each condition while the same number of NK92 cells were additionally seeded. After 12 hours, the NK92 cells were removed by washing, and only tumor cells were fixed. Next, the expression level of Granzyme B was determined through immuno-fluorescence staining. The Granzyme B expression levels were calculated as proportions relative to the control. FIG. 12 is a graph showing a Granzyme B expression level for each test group in an anticancer effect evaluation test, in which the x-axis represents the test group and the y-axis represents the Granzyme B expression level (%) relative to the control group."}, "[6]": {"settings": "100 mg/kg co-administered with paclitaxel, eighteenth day after first dose"}, "[7]": {"settings": "40, 120, 400 mg/kg subcutaneous daily for 4 weeks"}}, "data": [{"substance": "Ac-QLHLD-OH [Example 1, acetyl-QLHLD]", "values": [{"measurement": "LC3II expression compared to the group treated with only anti-PD-L1", "setting": "[1]; 12 h, P<0.001", "value": "significantly decreased"}, {"measurement": "Cleaved PARP expression compared to the group treated with only anti-PD-L1", "setting": "[1]; 24 h, P<0.05", "value": "significantly increased"}, {"measurement": "Day of administration on which the first deceased mouse occurred", "setting": "MDA-MB-231 [2]", "value": 60, "unit": "days"}, {"measurement": "CR (mice in which the tumor disappeared)", "setting": "MDA-MB-231 [3]; 100 mg/kg Day 2, 4, 6 after paclitaxel 20 mg/kg Day 0 and 1, ten mice", "value": 20, "unit": "%"}, {"measurement": "Reduction in tumor volume compared to control group", "setting": "MDA-MB-231 [3]; [6]", "value": 48, "unit": "%"}, {"measurement": "Reduction in tumor weight compared to control group", "setting": "MDA-MB-231 [3]; [6]", "value": 51, "unit": "%"}, {"measurement": "Day on which the tumor disappeared", "setting": "MDA-MB-231 [3]; co-administered with paclitaxel, two mice", "value": 14, "unit": "days"}, {"measurement": "Duration of the efficacy of a single-cycle drug treatment", "setting": "MDA-MB-231 [3]; combination administration with paclitaxel", "value": "≤ 2", "unit": "weeks"}, {"measurement": "Abnormalities (body weight, feed intake, ophthalmic examination, electrocardiogram, urinalysis, hematology, clinical biochemistry, necropsy, organ weight)", "setting": "[4]; [7]", "value": "No abnormalities"}, {"measurement": "Deaths", "setting": "[4]; [7]", "value": "no deaths were observed"}, {"measurement": "Systemic exposure (AUClast, Cmax), dose dependence", "setting": "[4]; Day 1 and Day 28, 40, 120, 400 mg/kg", "value": "approximately proportionally increased with increase in the dose"}, {"measurement": "Accumulation", "setting": "[4]; Day 1 vs Day 28", "value": "no pentapeptide accumulation"}, {"measurement": "NOAEL at 4 weeks", "setting": "[4]; both sexes, dog, in vivo, sc, female and male, subcutaneous, daily for 4 weeks, read-out: NOAEL (No Observed Adverse Effect Level)", "value": 400, "unit": "mg/kg/day"}, {"measurement": "Granzyme B expression in tumor cells compared to the group treated with only anti-PD-L1", "setting": "[5]", "value": "increased significantly"}]}]}
